Data from ChEMBL document CHEMBL1132957, “Design of potent dicyclic (4-10/5-8) gonadotropin releasing hormone (GnRH) antagonists” (J Med Chem, 2000).
One block for each compound: values may come before it. Activity calls are given as the source filed them. The rule behind the calls is not given here.

Experiments:
[1] = target: T1, Gonadotropin-releasing hormone receptor (Rattus norvegicus, UniProt P30969); experiment: Competitive radioligand binding assay, in human HEK293 cells stably transfected with the rat Gonadotropin-releasing hormone receptor; type: cell-based
T1 sequence (P30969 whole entry): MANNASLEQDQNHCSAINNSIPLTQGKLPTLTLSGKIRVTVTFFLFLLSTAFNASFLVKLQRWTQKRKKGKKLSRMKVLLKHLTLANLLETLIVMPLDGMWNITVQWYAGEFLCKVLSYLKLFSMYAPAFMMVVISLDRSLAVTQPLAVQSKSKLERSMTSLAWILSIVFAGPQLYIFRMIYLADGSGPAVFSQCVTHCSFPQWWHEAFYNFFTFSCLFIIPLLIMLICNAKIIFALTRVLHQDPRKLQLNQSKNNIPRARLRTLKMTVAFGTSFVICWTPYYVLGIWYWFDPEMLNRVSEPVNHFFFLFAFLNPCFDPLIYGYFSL

[2] = system: Rattus norvegicus; experiment: Evaluated for the ovulation effects in the rat by administering the drug at the doses (5.0 ug); 4/7; type: functional, organism-based
[3] = system: Rattus norvegicus; experiment: Evaluated for the ovulation effects in the rat by administering the drug at the doses (5 ug); 1/8; type: functional, organism-based
[4] = system: Rattus norvegicus; experiment: Evaluated for the ovulation effects in the rat by administering the drug at the doses (1.0 ug); 11/15; type: functional, organism-based
[5] = system: Rattus norvegicus; experiment: Evaluated for the ovulation effects in the rat by administering the drug at the doses (2.5 ug); 3/10; type: functional, organism-based
[6] = system: Rattus norvegicus; experiment: Evaluated for the ovulation effects in the rat by administering the drug at the doses (10 ug); 0/9; type: functional, organism-based
[7] = system: Rattus norvegicus; experiment: Evaluated for the ovulation effects in the rat by administering the drug at the doses (10 ug); 4/9; type: functional, organism-based
[8] = system: Rattus norvegicus; experiment: Evaluated for the ovulation effects in the rat by administering the drug at the doses (25 ug); 2/5; type: functional, organism-based
[9] = system: Rattus norvegicus; experiment: Evaluated for the ovulation effects in the rat by administering the drug at the doses (100 ug); 1/8; type: functional, organism-based
[10] = system: Rattus norvegicus; experiment: Evaluated for the ovulation effects in the rat by administering the drug at the doses (50 ug); 2/8; type: functional, organism-based
[11] = system: Rattus norvegicus; experiment: Evaluated for the ovulation effects in the rat by administering the drug at the doses (5 ug); 2/6; type: functional, organism-based
[12] = system: Rattus norvegicus; experiment: Evaluated for the ovulation effects in the rat by administering the drug at the doses (2.5 ug); 3/3; type: functional, organism-based
[13] = system: Rattus norvegicus; experiment: Evaluated for the ovulation effects in the rat by administering the drug at the doses (25 ug); 4/4; type: functional, organism-based

SMILES: CC(=O)N[C@H](Cc1ccc2ccccc2c1)C(=O)N[C@H](Cc1ccc(F)cc1)C(=O)N[C@H](Cc1c[nH]c2ccccc12)C(=O)N[C@H]1CC(=O)NC(C(N)=O)NC(=O)[C@@H]2CCCN2C(=O)[C@H](CCCNC(=N)N)NC(=O)[C@H](CC(C)C)NC(=O)[C@@H](CCCNC(=N)N)NC(=O)[C@H](Cc2ccc(O)cc2)NC1=O (stereo partly specified)
Ki ([1]; hek293): 1.3 nM

SMILES: CC(=O)N[C@H](Cc1ccc2ccccc2c1)C(=O)N[C@H](Cc1ccc(Cl)cc1)C(=O)N[C@H](Cc1cccnc1)C(=O)N[C@H]1CC(=O)NC[C@@H](C(N)=O)NC(=O)[C@@H]2CCCN2C(=O)[C@@H]2CCNC(=O)CCNC(=O)C[C@H](NC1=O)C(=O)N[C@H](CCCN=C(N)N)C(=O)N[C@@H](CC(C)C)C(=O)N2
Activity [2]: Weak activity | Ki [1]: 0.37 nM

SMILES: CC(=O)N[C@H](Cc1ccc2ccccc2c1)C(=O)N[C@H](Cc1ccc(F)cc1)C(=O)N[C@H](Cc1c[nH]c2ccccc12)C(=O)N[C@H]1CCC(=O)NC(C(N)=O)NC(=O)[C@@H]2CCCN2C(=O)[C@H](CCCNC(=N)N)NC(=O)[C@H](CC(C)C)NC(=O)[C@@H](CCCNC(=N)N)NC(=O)[C@H](Cc2ccc(O)cc2)NC1=O (stereo partly specified)
Ki ([1]; hek293): 1.3 nM

SMILES: CC(=O)N[C@H](Cc1ccc2ccccc2c1)C(=O)N[C@H](Cc1ccc(Cl)cc1)C(=O)N[C@H](Cc1cccnc1)C(=O)N[C@H]1CC(=O)NC[C@@H](C(N)=O)NC(=O)[C@@H]2CCCN2C(=O)[C@@H]2CCNC(=O)CN(C)C(=O)CC[C@H](NC1=O)C(=O)N[C@H](CCCN=C(N)N)C(=O)N[C@@H](CC(C)C)C(=O)N2
Ki [1]: 0.2 nM | Activity [7]: Weak activity

SMILES: CC(=O)N[C@H](Cc1ccc2ccccc2c1)C(=O)N[C@H](Cc1ccc(F)cc1)C(=O)N[C@H](Cc1c[nH]c2ccccc12)C(=O)N[C@H]1CC(=O)NCC[C@@H](C(N)=O)NC(=O)[C@@H]2CCCN2C(=O)[C@H](CCCNC(=N)N)NC(=O)[C@H](CC(C)C)NC(=O)[C@@H](CCCNC(=N)N)NC(=O)[C@H](Cc2ccc(O)cc2)NC1=O
Ki ([1]; hek293): 10 nM

Continued, in another order:

Ki [1]: 0.23 nM
SMILES: CC(=O)N[C@H](Cc1ccc2ccccc2c1)C(=O)N[C@H](Cc1ccc(Cl)cc1)C(=O)N[C@H](Cc1cccnc1)C(=O)N[C@H]1CC(=O)NC[C@@H](C(N)=O)NC(=O)[C@@H]2CCCN2C(=O)[C@@H]2CCNC(=O)[C@H](Cc3ccccc3)NC(=O)CC[C@H](NC1=O)C(=O)N[C@H](CCCN=C(N)N)C(=O)N[C@@H](CC(C)C)C(=O)N2
Activity [3]: Active | Activity [4]: inactive | Activity [5]: Weak activity | Activity [6]: Active

Ki [1]: 1.3 nM
SMILES: CC(=O)N[C@H](Cc1ccc2ccccc2c1)C(=O)N[C@H](Cc1ccc(Cl)cc1)C(=O)N[C@H](Cc1cccnc1)C(=O)N[C@H]1CC(=O)NC[C@@H](C(N)=O)NC(=O)[C@@H]2CCCN2C(=O)[C@@H]2CCCCNC(=O)CC[C@H](NC1=O)C(=O)N[C@H](Cc1ccc3ccccc3c1)C(=O)N[C@@H](CC(C)C)C(=O)N2
Activity [8]: Weak activity | Activity [9]: Active | Activity [10]: Weak activity

Ki [1]: 0.75 nM
SMILES: CC(=O)N[C@H](Cc1ccc2ccccc2c1)C(=O)N[C@H](Cc1ccc(Cl)cc1)C(=O)N[C@H](Cc1cccnc1)C(=O)N[C@H]1CC(=O)NC[C@@H](C(N)=O)NC(=O)[C@@H]2CCCN2C(=O)[C@@H]2CCCNC(=O)[C@H](Cc3ccccc3)NC(=O)C[C@H](NC1=O)C(=O)N[C@H](CCCN=C(N)N)C(=O)N[C@@H](CC(C)C)C(=O)N2
Activity [11]: Weak activity | Activity [12]: inactive

Ki [1]: 12 nM
SMILES: CC(=O)N[C@H](Cc1ccc2ccccc2c1)C(=O)N[C@H](Cc1ccc(Cl)cc1)C(=O)N[C@H](Cc1cccnc1)C(=O)N[C@H]1CC(=O)NC[C@@H](C(N)=O)NC(=O)[C@@H]2CCCN2C(=O)[C@@H]2CCNC(=O)[C@H](Cc3ccccc3)NC(=O)C[C@H](NC1=O)C(=O)N[C@H](CCCN=C(N)N)C(=O)N[C@@H](CC(C)C)C(=O)N2
Activity [13]: inactive
